Results reported in patent US20080299542A1, “IDENTIFICATION OF OXIDATIVELY MODIFIED PEPTIDE SEQUENCES IN THE PROTEOME (LOSCALZO)” (priority 2007, published 2008).
Entries after “also recorded” stand apart in the source; their conditions may differ.

Columns and labels:
[1] = system: protein disulfides in BAECs; experiment: in situ fluorescence imaging of cellular protein disulfides (BAECs); assay type: cell-based, Bovine; conditions: for protein disulfide formation: BAECs, mitochondrial inhibitors, FIG. 1b
Experimental: (§1) Detection of cellular disulfide-containing proteins: We developed a method for imaging disulfide-containing proteins in situ. Methanol-fixed cells were treated with 200 mM iodoacetamide in 100 mM Tris, pH 8.3, 5 mM EDTA at 37° C. for 1 hour to block thiols. The cells were then washed six times with Tris-buffered saline, pH 8.0, 5 mM EDTA, after which they were incubated with 5 mM EDTA, 1 mM tris(2-carboxyethyl) phosphine, pH 8.3, at room temperature to reduce disulfides and with 1 mM 5-iodoacetamidofluorescein (5-IAF) in 100 mM Tris to label the resulting thiols for 1 hour. Excess dye was removed by washing the cells repeatedly with TBS. Stained cells fixed to slides were then treated with Prolonged Antifade Mounting Medium, and cell nuclei were counterstained with DAPI. Fluorescent images were taken with a Nikon fluorescence TE 2000 microscope. Fluorescence intensity was quantified by subtracting background fluorescence, then integrating the image with the NIH IMAGEJ program and normalizing by cell number as determined by DAPI fluorescence. Four fields magnified×20 were analyzed per experiment, with 100-200 cells counted per sample.

[2] = system: protein disulfides in Chang liver cells; experiment: in situ fluorescence imaging of cellular protein disulfides (Chang liver cells); assay type: cell-based; conditions: CCCP for 4 hr, FIG. 1a
Experimental: as §1

GRP94 = experiment: ER stress marker induction, GRP94; assay type: cell-based; conditions: compared to tunicamycin and thapsigargin treatments
Experimental: (§2) Western blotting and indirect immunofluorescence: Cells were lysed in cell lysis buffer (Cell Signaling, Danvers, Mass.). Lysate protein concentration was measured by the Biorad DC protein assay. Equal amounts of proteins were separated by MOPS-SDS-PAGE, then transferred to poly(vinylidene difluoride) membranes (Invitrogen, Carlsbad, Calif.). Membranes were then blocked and the signal detected with a BM Chemiluminescence Blotting kit (Roche Diagnostics, Basel, Switzerland), BM POD precipitating blotting substrate (Roche Diagnostics, Basel, Switzerland), or Supersignal West Femto blotting kit (Pierce, Rockford, Ill.) according to the manufacturer's instructions. For protein inter-subunit disulfide bond detection, cells were lysed in cell lysis buffer containing 200 mM N-ethyl-maleimide and incubated at 37° C. for 1 hr. LDS sample buffer with or without DTT was added to cell lysates, and proteins were separated by MOPS-SDS-PAGE. For indirect immunofluorescence studies, formaldehyde-fixed cells were permeablized with 0.3% Triton for 10 min, blocked with 1% BSA for 30 min, then detected with antibodies. […]

Endoglin = experiment: endoglin disulfide-dependent detection and localization in HPAECs; assay type: cell-based, human; conditions: non-reducing immunoblot; FIG. 1j
Experimental: as §2

CD98 = CD98 heterodimer blot in Chang liver cells; assay type: cell-based; conditions: mitochondrial inhibitor treated
Experimental: as §2

HPAECs = experiment: mitochondrial membrane potential by JC-1 fluorescence; assay type: cell-based, human; conditions: after CCCP treatment, FIG. 5b
Experimental: Mitochondrial membrane potential measurement: Cells were incubated with medium containing 1 ug/ml JC-1 for […], washed with HBSS, and then observed by fluorescence microscopy immediately. Alternatively, fluorescence was measured with a GEMINI XPS microplate reader, with an excitation wavelength of 488 nm and an emission wavelength of 536 nm, as well as an excitation wavelength of 528 nm and an emission wavelength 590 nm. Mitochondrial membrane potential was expressed as the ratio of emission at 590 nm to that at 536 nm.

vWF = experiment: multimeric vWF immunoblot / immunofluorescence in HPAECs; assay type: cell-based, human; conditions: FIG. 1i
Experimental: Western blotting and indirect immunofluorescence: Cells were lysed in cell lysis buffer (Cell Signaling, Danvers, Mass.). Lysate protein concentration was measured by the Biorad DC protein assay. Equal amounts of proteins were separated by MOPS-SDS-PAGE, then transferred to poly(vinylidene difluoride) membranes (Invitrogen, Carlsbad, Calif.). Membranes were then blocked and the signal detected with a BM Chemiluminescence Blotting kit (Roche Diagnostics, Basel, Switzerland), BM POD precipitating blotting substrate (Roche Diagnostics, Basel, Switzerland), or Supersignal West Femto blotting kit (Pierce, Rockford, Ill.) according to the manufacturer's instructions. For protein inter-subunit disulfide bond detection, cells were lysed in cell lysis buffer containing 200 mM N-ethyl-maleimide and incubated at 37° C. for 1 hr. LDS sample buffer with or without DTT was added to cell lysates, and proteins were separated by MOPS-SDS-PAGE. For indirect immunofluorescence studies, formaldehyde-fixed cells were permeablized with 0.3% Triton for 10 min, blocked with 1% BSA for 30 min, then detected with antibodies. Primary antibodies used in this study include monoclonal or polyclonal antibodies against CD98, PECAM, endoglin, vWF, PDI, pEGFR, EGFR, FGFR, and CD71 from Santa Cruz; against actin, from Sigma, St. Louis, Mo.; against pFGFR, pIGF1R, and IGF1R from Cell Signaling (Danvers, Mass.); against thioredoxin, MnSOD, catalase, and GAPDH from Abcam, Cambridge, Mass.; and against LOX-1 from Serotec, Raleigh, N.C. All secondary fluorescent-labeled or horseradish peroxidase-conjugated antibodies were obtained from Jackson Immunoresearch, West Grove, Pa.

LOX-1 = experiment: acetylated LDL (AcLDL) uptake by HPAECs; assay type: cell-based, human; conditions: for uptake of acetylated LDL (AcLDL) by HPAECs: mitochondrial inhibitors for 8 hr, FIG. 5
Experimental: (§3) Surface receptor functional assessment: After treatment, cells was incubated with 500 ng/ml Alexa 488-labeled EGF in DMEM containing 1% BSA, 50 μg/ml Alexa-488-labeled transferrin for 10 min, or 10 μg/ml Alexa 488-labeled AcLDL for 30 min in growth medium, and then washed with cold HBSS four times before fixation with formaldehyde at room temperature. Cells were also trypsinzed and ligand uptake quantified by flow cytometry (FACS Calibur). For protein phosphorylation studies, cell lysates were also collected 5 min after stimulation with ligands.

GRP78 = experiment: ER stress marker induction, GRP78; assay type: cell-based; conditions: compared to tunicamycin and thapsigargin treatments
Experimental: as §2

CD71 = experiment: transferrin uptake (mediated by CD71) by HPAECs; assay type: cell-based, human; conditions: 0.5 mM DTT, 30 min, flow cytometry
Experimental: as §3

FGFR = experiment: bFGF-induced FGFR phosphorylation; assay type: cell-based; conditions: in the presence of 0.3 mM DTT; Chang liver cells; FIG. 8d
Experimental: (§4) Surface receptor functional assessment: After treatment, cells was incubated with 500 ng/ml Alexa 488-labeled EGF in DMEM containing 1% BSA, 50 μg/ml Alexa-488-labeled transferrin for 10 min, or 10 μg/ml Alexa 488-labeled AcLDL for 30 min in growth medium, and then washed with cold HBSS four times before fixation with formaldehyde at room temperature. Cells were also trypsinzed and ligand uptake quantified by flow cytometry (FACS Calibur). For protein phosphorylation studies, cell lysates were also collected 5 min after stimulation with ligands. Western blotting and indirect immunofluorescence: Cells were lysed in cell lysis buffer (Cell Signaling, Danvers, Mass.). Lysate protein concentration was measured by the Biorad DC protein assay. Equal amounts of proteins were separated by MOPS-SDS-PAGE, then transferred to poly(vinylidene difluoride) membranes (Invitrogen, Carlsbad, Calif.). Membranes were then blocked and the signal detected with a BM Chemiluminescence Blotting kit (Roche Diagnostics, Basel, Switzerland), BM POD precipitating blotting substrate (Roche Diagnostics, Basel, Switzerland), or Supersignal West Femto blotting kit (Pierce, Rockford, Ill.) according to the manufacturer's instructions. […] For indirect immunofluorescence studies, formaldehyde-fixed cells were permeablized with 0.3% Triton for 10 min, blocked with 1% BSA for 30 min, then detected with antibodies. […]

EGFR = experiment: EGF uptake and EGF-induced EGFR phosphorylation; assay type: cell-based; conditions: Chang liver cells
Experimental: as §4

IGF-1R = experiment: IGF-1-induced IGF-1R phosphorylation; assay type: cell-based; conditions: in the presence of 0.3 mM DTT; Chang liver cells; FIG. 8c
Experimental: as §4

C=C(C)[C@H]1Cc2c(ccc3c2O[C@@H]2COc4cc(OC)c(OC)cc4[C@@H]2C3=O)O1 [rotenone]
protein disulfide formation [1]: decreased

O=c1c2ccccc2[se]n1-c1ccccc1 [ebselen]
inhibition of disulfide formation ([1]; FIG. 1c, p<0.01, cell type not stated): 55%

N#CC(C#N)=NNc1cccc(Cl)c1 [CCCP, carbonylcyanide m-chlorophenylhydrazone]
overall protein disulfide signal [2]: decreased | upregulation of GRP94 (GRP94): did not induce significant upregulation | endoglin detected by P4A4 antibody (Endoglin): less endoglin was detected | heterodimer CD98 (CD98): remained intact | mitochondrial membrane potential (MMP) (HPAECs): immediate loss | disulfide-linked multimeric vWF (vWF): dissociation of disulfide-linked multimeric vWF | uptake of acetylated LDL (AcLDL) by HPAECs (LOX-1): decreased | upregulation of GRP78 (GRP78): did not induce significant upregulation | protein disulfide formation [1]: decreased; also recorded: most effective | effect on protein disulfide formation in MitoCAT overexpressing cells ([1]; CCCP for 8 hrs, FIG. 4): no longer had any effect

C[C@]12CC[C@H](O)CC1=CC[C@@H]1[C@@H]2CC[C@]2(C)C(=O)CC[C@@H]12 [DHEA, dehydroepiandrosterone]
disulfide-linked multimeric vWF (vWF): increased

CO/C(=C/C(N)=O)[C@H](C)[C@H](/C=C/c1csc(-c2csc([C@@H](C)/C=C/C=C/C(C)C)n2)n1)OC [myxothiazol]
protein disulfide formation [1]: decreased

CCCCCC[C@H]1C(=O)O[C@H](C)[C@H](NC(=O)c2cccc(NC=O)c2O)C(=O)O[C@@H](C)[C@@H]1OC(=O)CC(C)C [ATM, antimycin A]
protein disulfide formation [1]: least effective

CCCCS(=N)(=O)CCC(N)C(=O)O (stereo not shown) [BSO, buthionine sulfoximine]
disulfide-linked multimeric vWF (vWF): increased

O=C(CC(=O)C(F)(F)F)c1cccs1 [TTFA, thienoyltrifluoroacetone]
endoglin detected by P4A4 antibody (Endoglin): less endoglin was detected | uptake of acetylated LDL (AcLDL) by HPAECs (LOX-1): decreased | protein disulfide formation [1]: decreased

O[C@H](CS)[C@H](O)CS (racemic) [DTT, dithiothreitol]
uptake of transferrin (CD71): did not change | phosphorylation of FGFR (FGFR): completely inhibited | uptake of EGF (EGFR; 0.5 mM DTT, 30 min, flow cytometry): did not change | EGFR activation by EGF (EGFR; in the presence of 0.5 mM DTT): fully activated | uptake of AcLDL by HPAECs (LOX-1; 0.5 mM DTT, 30 min, flow cytometry, FIG. 8a): decreased | phosphorylation of IGF-1Rβ (IGF-1R): completely inhibited
